Data published in patent US5620958A, “Bradykinin antagonists” (Coretech, Inc., priority 1994, dated 1997).
Numbered stars: 1 amine (or outer) side, 2 acyl side, 3 side chain; on linkers, the order of the positions; unused ones are H or OH. Bridge positions count the residues as written; N and C are the ends. Square brackets hold non-standard residues; d marks the D form. Peptide text beside a SMILES is read from it. I, II: the chains in the order shown. BMH = O=C1CC([*:1])C(=O)N1CCCCCCN1C(=O)CC([*:2])C1=O; Oic = O=C(O)[C@@H]1C[C@@H]2CCCC[C@@H]2N1; Hyp = O=C(O)[C@@H]1C[C@@H](O)CN1; dTic = O=C(O)[C@H]1Cc2ccccc2CN1

Experiments:
BK1 receptor [1] = target: T1, BK1 receptor (Oryctolagus cuniculus, UniProt P48748); experiment: rabbit aorta in vitro, reversal of des-Arg^9 -BK contraction; format: cell-based; details: for IC50: negative log of molar concentration
T1 construct: when administered to an intact animal; from tissue; host or cells: whole rabbit (systemic arterial blood pressure), LPS-pretreated
T1 sequence (P48748 1-352): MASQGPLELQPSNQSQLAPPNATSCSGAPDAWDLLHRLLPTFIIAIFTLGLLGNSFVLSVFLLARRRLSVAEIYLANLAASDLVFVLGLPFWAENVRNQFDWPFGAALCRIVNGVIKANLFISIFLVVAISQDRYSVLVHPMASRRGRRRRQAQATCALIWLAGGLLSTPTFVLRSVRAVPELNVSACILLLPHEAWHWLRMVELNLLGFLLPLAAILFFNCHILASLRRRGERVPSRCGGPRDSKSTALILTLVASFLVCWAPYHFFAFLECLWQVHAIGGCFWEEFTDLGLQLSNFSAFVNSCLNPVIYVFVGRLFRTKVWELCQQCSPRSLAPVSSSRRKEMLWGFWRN

BK1 receptor [2] = target: T1, BK1 receptor; experiment: blood pressure response to BK1 agonist in LPS-pretreated rabbits; format: in vivo, rabbit; details: for OBSERVED ANTAGONIST ACTIVITY BK1: rabbits given LPS (10 μg) 20 hours before
BK2 receptor [3] = target: T2, BK2 receptor (Oryctolagus cuniculus, UniProt Q28642); experiment: blood pressure response to BK2 agonist in LPS-pretreated rabbits; format: in vivo, rabbit; design: key to OBSERVED ANTAGONIST ACTIVITY BK2: +: indicates complete blockade of the blood pressure response to the appropriate agonist; +/-: indicates partial blockade; -: indicates no observable effect at the dose indicated; details: for OBSERVED ANTAGONIST ACTIVITY BK2: rabbits given LPS (10 μg) 20 hours before
T2 construct: when administered to an intact animal; from tissue; host or cells: whole rabbit (systemic arterial blood pressure), LPS-pretreated
T2 sequence (Q28642 1-367): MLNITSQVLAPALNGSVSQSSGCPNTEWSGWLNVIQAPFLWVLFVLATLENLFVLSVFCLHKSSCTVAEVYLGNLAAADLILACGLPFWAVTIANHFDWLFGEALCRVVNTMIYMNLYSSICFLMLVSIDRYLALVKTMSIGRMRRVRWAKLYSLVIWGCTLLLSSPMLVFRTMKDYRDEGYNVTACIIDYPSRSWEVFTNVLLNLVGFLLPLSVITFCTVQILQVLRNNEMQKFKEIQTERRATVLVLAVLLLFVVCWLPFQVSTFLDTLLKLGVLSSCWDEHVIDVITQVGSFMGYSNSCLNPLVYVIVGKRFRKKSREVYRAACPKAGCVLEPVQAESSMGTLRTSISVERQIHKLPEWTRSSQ

BK2 receptor [4] = target: T3, BK2 receptor (Rattus norvegicus, UniProt P25023); experiment: cell-based
T3 sequence (P25023 1-396): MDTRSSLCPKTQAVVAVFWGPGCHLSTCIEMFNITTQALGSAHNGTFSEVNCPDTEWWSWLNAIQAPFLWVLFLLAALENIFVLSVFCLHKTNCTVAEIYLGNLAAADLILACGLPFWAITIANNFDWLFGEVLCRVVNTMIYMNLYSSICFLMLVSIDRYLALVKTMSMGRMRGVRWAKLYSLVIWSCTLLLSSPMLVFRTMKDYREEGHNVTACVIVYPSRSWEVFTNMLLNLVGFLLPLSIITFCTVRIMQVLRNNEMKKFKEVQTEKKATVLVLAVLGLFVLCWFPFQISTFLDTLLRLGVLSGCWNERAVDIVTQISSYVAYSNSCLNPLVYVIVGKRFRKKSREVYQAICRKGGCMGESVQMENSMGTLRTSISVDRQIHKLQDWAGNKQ

BK2 receptor [5] = target: T4, BK2 receptor (Cavia porcellus, UniProt O70526); experiment: guinea-pig ileum (GPI) in vitro, antagonism of BK; format: cell-based; details: Table B; read-out: pA2 GUINEA PIG ILEUM (converted)
T4 construct: tested for activity on guinea pig ileum in vitro on the standard tissue bath/strain gauge system; from tissue; host or cells: guinea pig ileum
T4 sequence (O70526 1-372): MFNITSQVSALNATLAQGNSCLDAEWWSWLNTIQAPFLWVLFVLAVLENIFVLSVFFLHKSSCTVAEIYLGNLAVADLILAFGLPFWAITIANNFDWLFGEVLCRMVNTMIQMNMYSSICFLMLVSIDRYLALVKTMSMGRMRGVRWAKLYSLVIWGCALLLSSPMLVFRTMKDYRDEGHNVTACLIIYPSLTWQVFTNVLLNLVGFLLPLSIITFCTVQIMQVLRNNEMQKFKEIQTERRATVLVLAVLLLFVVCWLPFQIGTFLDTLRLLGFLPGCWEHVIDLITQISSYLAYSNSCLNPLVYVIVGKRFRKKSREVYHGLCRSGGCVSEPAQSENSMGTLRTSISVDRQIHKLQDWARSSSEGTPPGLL
Procedure: Thus, in vitro studies were performed on standard assay systems, namely, guinea-pig ileum (GPI), rat uterus (RU) and rabbit jugular vein (RJV). […] The potency of each compound was assessed as a pA2 value according to the method of Arunlakshana & Schild, Br. J. Pharmacol. Chemother., 1.4:48-58 (1959). The pA2 can be defined as the negative logarithm of the molar concentration of the antagonist in the presence of which the potency of the agonist is reduced two-fold, i.e., twice the amount of agonist is required to produce a given response in the presence of, than in the absence of, the antagonist. A high potency of antagonism is indicated by a high pA2 value, i.e., a low concentration of antagonist is effective.
The percentage recovery (% Rec) was also determined for compounds with respect to each assay.
The various compounds identified in Table B below were prepared following the procedure of Example 1 with the Cys moiety introduced into the parent CP-0088 at the position indicated followed by reaction between the sulfhydryl group of the Cys residue and BMH to provide dimers as indicated. The Cys-modified monomers and the resultant dimers were tested for activity on guinea pig ileum in vitro on the standard tissue bath/strain gauge system as before.

BK2 receptor [6] = target: T3, BK2 receptor; details: for BK2 Rat Uterus pA2: Table L
[7] = FIG. 8c, rabbits after endotoxin pretreatment

Compound	IC50 (BK1 receptor [1]; Table L)	OBSERVED ANTAGONIST ACTIVITY BK1 (BK1 receptor [2]; 1 μg kg^-1 min^-1)	OBSERVED ANTAGONIST ACTIVITY BK1 (BK1 receptor [2]; 3 μg kg^-1 min^-1)	OBSERVED ANTAGONIST ACTIVITY BK1 (BK1 receptor [2]; 10 μg kg^-1 min^-1)	OBSERVED ANTAGONIST ACTIVITY BK2 (BK2 receptor [3]; 1 μg kg^-1 min^-1)	OBSERVED ANTAGONIST ACTIVITY BK2 (BK2 receptor [3]; 3 μg kg^-1 min^-1)	OBSERVED ANTAGONIST ACTIVITY BK2 (BK2 receptor [3]; 10 μg kg^-1 min^-1)	Kb (BK2 receptor [4])	BK1 antagonism (BK1 receptor [1])	activity in the rat uterus BK2 receptor system (BK2 receptor [6])	BK2 Rat Uterus pA2 (BK2 receptor [6])	other results
N=C(N)NCCC[C@@H](N)C(=O)N[C@@H](CCCNC(=N)N)C(=O)N1CCC[C@H]1C(=O)N1C[C@H](O)C[C@H]1C(=O)NCC(=O)N[C@@H](Cc1ccccc1)C(=O)N[C@@H](CSC1CC(=O)N(CCCCCCN2C(=O)CC(SC[C@H](NC(=O)[C@H](N)CCCNC(=N)N)C(=O)N3CCC[C@H]3C(=O)N3C[C@H](O)C[C@H]3C(=O)NCC(=O)N[C@@H](Cc3ccccc3)C(=O)N[C@@H](CO)C(=O)N3Cc4ccccc4C[C@@H]3C(=O)N3[C@H](C(=O)O)C[C@@H]4CCCC[C@@H]43)C2=O)C1=O)C(=O)N1Cc2ccccc2C[C@@H]1C(=O)N1[C@H](C(=O)N[C@@H](CCCNC(=N)N)C(=O)O)C[C@@H]2CCCC[C@@H]21 (stereo partly shown) [CP-0365] (I: H-[dR]RP[Hyp]GFC[dTic][Oic]R-OH / II: H-[dR]CP[Hyp]GFS[dTic][Oic]-OH; linker I:7-II:2 via BMH; N-terminus and C-terminus assumed)	39.8 nM	-	+	+	-	+	+	3.98 nM				
CC(C)C[C@H](NC(=O)[C@@H](Cc1ccccc1)NC(=O)[C@H](CO)NC(=O)[C@H](Cc1ccccc1)NC(=O)CNC(=O)[C@@H]1C[C@@H](O)CN1C(=O)[C@@H]1CCCN1C(=O)[C@H](CS)NC(=O)[C@H](N)CCCNC(=N)N)C(=O)N[C@@H](CCCNC(=N)N)C(=O)O [CP-0141] (HELM PEPTIDE1{[dR].C.P.[Hyp].G.F.S.[dF].L.R}$$$$V2.0)								> 1000 nM				Kb (BK2 receptor [5]): 794 nM; % REC MONOMER (BK2 receptor [6]; Table C, rat uterus): 100%
CC(C)C[C@H](NC(=O)[C@@H]1CCCN1C(=O)[C@H](CO)NC(=O)[C@H](Cc1ccccc1)NC(=O)CNC(=O)[C@@H]1C[C@@H](O)CN1C(=O)[C@@H]1CCCN1C(=O)[C@H](CSC1CC(=O)N(CCCCCCN2C(=O)CC(SC[C@H](NC(=O)[C@H](Cc3ccccc3)NC(=O)CNC(=O)[C@@H]3C[C@@H](O)CN3C(=O)[C@@H]3CCCN3C(=O)[C@H](CCCNC(=N)N)NC(=O)[C@H](N)CCCNC(=N)N)C(=O)N[C@H](Cc3ccccc3)C(=O)N[C@@H](CC(C)C)C(=O)N[C@@H](CCCNC(=N)N)C(=O)O)C2=O)C1=O)NC(=O)[C@H](N)CCCNC(=N)N)C(=O)O (stereo partly shown) [CP-0364] (HELM PEPTIDE1{[dR].R.P.[Hyp].G.F.C.[dF].L.R}|PEPTIDE2{[dR].C.P.[Hyp].G.F.S.P.L}|CHEM1{[O=C1CC([*:1])C(=O)N1CCCCCCN1C(=O)CC([*:2])C1=O]}$PEPTIDE1,CHEM1,7:R3-1:R1|PEPTIDE2,CHEM1,2:R3-1:R2$$$V2.0; N-terminus and C-terminus assumed)	31.6 nM	+	+	+	+	+	+	5.01 nM				block of BK1-mediated hypotensive response (BK1 receptor [2]; [7]): capable of blocking the response profile to both agonists simultaneously; block of BK2-mediated hypotensive response (BK2 receptor [3]; [7]): capable of blocking the response profile to both agonists simultaneously
CC(C)C[C@H](NC(=O)[C@@H]1CCCN1C(=O)[C@H](CO)NC(=O)[C@H](Cc1ccccc1)NC(=O)CNC(=O)[C@@H]1C[C@@H](O)CN1C(=O)[C@@H]1CCCN1C(=O)[C@H](CS)NC(=O)[C@H](N)CCCNC(=N)N)C(=O)O [CP-0362] (HELM PEPTIDE1{[dR].C.P.[Hyp].G.F.S.P.L}$$$$V2.0; N-terminus and C-terminus assumed)												IC50 (BK1 receptor [1]; Table K): 1000 nM; BK2 (RAT UTERUS) pA2 (BK2 receptor [6]; Table K): Inactive
CC(C)C[C@H](NC(=O)[C@@H]1CCCN1C(=O)[C@H](CO)NC(=O)[C@H](Cc1ccccc1)NC(=O)CNC(=O)[C@@H]1C[C@@H](O)CN1C(=O)[C@@H]1CCCN1C(=O)[C@H](CSC1CC(=O)N(CCCCCCN2C(=O)CC(SC[C@H](NC(=O)[C@H](Cc3ccccc3)NC(=O)CNC(=O)[C@@H]3C[C@@H](O)CN3C(=O)[C@@H]3CCCN3C(=O)[C@H](CCCNC(=N)N)NC(=O)[C@H](N)CCCNC(=N)N)C(=O)N[C@H](Cc3ccccc3)C(=O)N[C@@H](CC(C)C)C(=O)N[C@@H](CCCNC(=N)N)C(=O)O)C2=O)C1=O)NC(=O)[C@@H](N)CCCCN)C(=O)O (stereo partly shown) [CP-0382] (HELM PEPTIDE1{[dR].R.P.[Hyp].G.F.C.[dF].L.R}|PEPTIDE2{K.C.P.[Hyp].G.F.S.P.L}|CHEM1{[O=C1CC([*:1])C(=O)N1CCCCCCN1C(=O)CC([*:2])C1=O]}$PEPTIDE1,CHEM1,7:R3-1:R1|PEPTIDE2,CHEM1,2:R3-1:R2$$$V2.0; N-terminus and C-terminus assumed)	631 nM								BK1 antagonism was retained	substantial partial agonism	Agonist	
CC(C)C[C@H](NC(=O)[C@@H]1CCCN1C(=O)[C@H](CO)NC(=O)[C@H](Cc1cccs1)NC(=O)CNC(=O)[C@@H]1CCCN1C(=O)[C@@H]1CCCN1C(=O)[C@H](CSC1CC(=O)N(CCCCCCN2C(=O)CC(SC[C@H](NC(=O)[C@H](Cc3ccccc3)NC(=O)CNC(=O)[C@@H]3C[C@@H](O)CN3C(=O)[C@@H]3CCCN3C(=O)[C@H](CCCNC(=N)N)NC(=O)[C@H](N)CCCNC(=N)N)C(=O)N[C@H](Cc3ccccc3)C(=O)N[C@@H](CC(C)C)C(=O)N[C@@H](CCCNC(=N)N)C(=O)O)C2=O)C1=O)NC(=O)[C@@H](N)CCCCN)C(=O)O (stereo partly shown) [CP-0383] (HELM PEPTIDE1{[dR].R.P.[Hyp].G.F.C.[dF].L.R}|PEPTIDE2{K.C.P.P.G.[O=C([C@H](Cc1cccs1)N[*:1])[*:2]].S.P.L}|CHEM1{[O=C1CC([*:1])C(=O)N1CCCCCCN1C(=O)CC([*:2])C1=O]}$PEPTIDE1,CHEM1,7:R3-1:R1|PEPTIDE2,CHEM1,2:R3-1:R2$$$V2.0)	15.8 nM								BK1 antagonism was retained	substantial partial agonism	Agonist	
